Data taken from patent US8530455B2 (University of Medicine and Dentistry of New Jersey, priority 2009, dated 2013).

Columns and labels:
[1] = test system: human citrated whole blood (CWB); experiment: Whole blood clotting time after recalcification (Amelung KC4A Micro, or instrument not named); assay type: cell-based
Description: Clotting time of whole blood enables the contribution of both the cellular elements (leukocytes, red blood cells, platelets) and plasma (the liquid sustaining the cellular components) to be evaluated. The citrate anticoagulated sample is brought to 37° (body temperature) and calcium ion is added to initiate the coagulation cascade. Many instruments are available to determine the time between calcium addition and the formation of the blood clot (clotting time). The time for this complex phenomenon to occur can be shorter than normal (hypercoagulable), within the normal range, and longer than normal (hypocoagulable state). Some disease states are characterized by hypercoagulable clotting states and include coronary artery disease, some cancer, diabetes, multiple sclerosis, stroke etc. The hypocoagulable states include hemophilia, and patients receiving anticoagulant therapies.
(§1) Human citrated whole blood (CWB) samples were gently inverted several times to ensure homogeneity and stored on ice to prevent protein denaturation. Ten microliters of physiologic saline was added to 490 μl of CWB (control), gently mixed, and incubated at 37° C. for 10 minutes. Coagulation was initiated by transferring 300 μl of blood sample to a cuvette containing 32 μl of 0.1 M CaCl2. After gently mixing the sample and ensuring no air bubble formations in the cuvette, the whole blood clotting times were recorded on an Amelung KC4A Micro Coagulation Analyzer (Sigma Diagnostics, St. Louis, Mo., USA), a device that uses the relative displacement of a magnetic bead due to fibrin formation to determine the clotting time. In addition, the Sonoclot Coagulation Analyzer (Sienco, Wheat Ridge, Colo., USA), a miniviscometer that is sensitive to fibrin polymer formation and fibrinolysis, was also employed to determine the whole blood clotting time. Both clinical instruments are FDA approved and used to evaluate blood coagulation processes at 37° C.
(§2) Clotting time values obtained within each study were evaluated by repeated measures analysis of variance (ANOVA) followed by Tukey-Kramer multiple comparison tests. All statistical analyses were assessed using two-sided paired Student t tests and significance was defined as p<0.05.

[2] = test system: human citrated whole blood (CWB); experiment: Whole blood clotting time, Sonoclot Coagulation Analyzer; assay type: cell-based
Description: as §1, §2
In the previous experiments, the whole blood clotting times were measured using the Amelung KC4A Micro, an instrument approved by the FDA to measure blood coagulation processes. Another FDA approved instrument used to measure blood coagulation and fibrinolysis is the Sonoclot Coagulation Analyzer.

[3] = test system: red blood cells in anticoagulated human blood; experiment: Erythrocyte Sedimentation Rate (ESR) in vitro; assay type: cell-based; settings: for ESR value: n=13
From the text: When anticoagulated blood is allowed to remain undisturbed in a long thin tube, the erythrocytes (red blood cells) begin to settle. The rate these cells settle may be a biomarker of the immune system status of the donor's blood. Many chronic diseases and those which create increased morbidity and mortality show increases (larger distance of settling) in ESR than age-matched healthy individuals. The ESR can also monitor the effects of therapeutics or procedures on the patient.
The ESR is the distance red blood cells settle in anticoagulated blood in one hour (mm/hr). These test results are elevated in many diseases that affect the immune system (infections, arthritis, cancer, heart diseases).

citrated whole blood = experiment: Glucose-accelerated clotting time (Diagnostica Stago ST4 and Sonoclot); assay type: cell-based, human; settings: for Glucose-accelerated clotting time: after 24 hours
Description: Citrated whole blood samples were obtained from the University Hospital's clinical laboratory with prior IRB approval. Samples were treated with different concentrations of glucose (6.0 mM, 9.0 mM, and 12.0 mM) to determine if a dose-response relationship existed between the glucose concentration and clotting time. Clotting times were then recorded using a Diagnostica Stago ST4 Coagulation Analyzer. […] The samples were incubated for 10 minutes prior to the addition of glucose (12.0 mM). After 24 hours, clotting times were recorded using a Diagnostica Stago ST4 and Sonoclot Coagulation Analyzer (FIG. 2). Results and Discussion

plasma = experiment: GDL dose response on plasma clotting time; assay type: biochemical; settings: GDL dose response curve in plasma
[4] = no refrigeration required; cited from earlier work

## O=C1O[C@H](CO)[C@@H](O)[C@H](O)[C@H]1O [GDL, glucono-delta-lactone]
[1]; 2 μg GDL per mL CWB, n=8, control 264.38 ± 24.17
  Mean Clotting Times: 271.13 ± 24.83 s
[1]; 2.90 μg GDL/mL CWB, n=4, saline 254.08±27.37
  mean clotting time: 246.55±28.32
[1]; 23.00 μg GDL/mL CWB, n=4
  mean clotting time: 307.90±16.82
[1]; 184.00 μg GDL/mL CWB, n=4
  mean clotting time: 387.33±52.36
[1]; 1.48 mg GDL/mL CWB, n=4
  mean clotting time: 444.55±92.01
[1]; 11.8 mg GDL per mL CWB, n=16, control 252.25 ± 25.05
  Mean Clotting Times: 618.31 ± 71.81 s
[1]; 11.80 mg GDL/mL CWB, n=4
  mean clotting time: 687.37±51.23
[1]; 0.2% TF plus 11.8 mg GDL per mL CWB, n=16
  Mean Clotting Times: 418.44 ± 80.46 s
[1]; 0.2 Unit LMWH (dalteparin sodium) plus 2 μg GDL per mL CWB, n=8
  Mean Clotting Times: 456.15 ± 47.45 s
[1]; 0.2 Unit UFH plus 2 μg GDL per mL CWB, n=8
  Mean Clotting Times: 572.51 ± 45.94 s
[1]; 0.3 Unit LMWH (enoxaparin sodium) plus 2.9 μg GDL per mL CWB, n=4
  Mean Clotting Times: 240.73 ± 29.58 s
[1]; 0.3 Unit LMWH (enoxaparin sodium) plus 10 μg GDL per mL CWB, n=4
  Mean Clotting Times: 294.50 ± 46.16 s
[1]; 0.3 Unit LMWH (enoxaparin sodium) plus 23 μg GDL per mL CWB, n=4
  Mean Clotting Times: 336.28 ± 51.79 s
[1]; 0.3 Unit LMWH (enoxaparin sodium) plus 184 μg GDL per mL CWB, n=4
  Mean Clotting Times: 381.23 ± 61.83 s
[1]; 0.3 Unit LMWH (enoxaparin sodium) plus 1.48 mg GDL per mL CWB, n=4
  Mean Clotting Times: 442.45 ± 63.38 s
[1]; 0.3 Unit LMWH (enoxaparin sodium) plus 11.8 mg GDL per mL CWB, n=4
  Mean Clotting Times: 542.88 ± 54.17 s
[1]; 0.3 Unit UFH plus 2.9 μg GDL per mL CWB, n=5
  Mean Clotting Times: 415.10 ± 101.63 s
[1]; 0.3 Unit UFH plus 10 μg GDL per mL CWB, n=5
  Mean Clotting Times: 498.94 ± 81.24 s
[1]; 0.3 Unit UFH plus 23 μg GDL per mL CWB, n=5
  Mean Clotting Times: 675.34 ± 129.28 s
[1]; 0.3 Unit UFH plus 184 μg GDL per mL CWB, n=5
  Mean Clotting Times: 825.96 ± 160.74 s
[1]; 0.3 Unit UFH plus 1.48 mg GDL per mL CWB, n=5
  Mean Clotting Times: 926.44 ± 192.03 s
[1]; 0.3 Unit UFH plus 11.8 mg GDL per mL CWB, n=5
  Mean Clotting Times: 1197.89 ± 114.32 s
[1]; CWB + GDL, n=9 (GDL 3 mg/ml)
  mean clotting time: 270 s
[1]; CWB + TF + GDL, n=9 (GDL 3 mg/ml)
  mean clotting time: 134 s
[1]; GDL 0.016 mM-66.24 mM
  change of whole blood clotting time over GDL concentration range: increased about three fold
[1]; GDL 3 mg/ml incubated in blood with bacterial endotoxin
  clotting time versus control: significantly (p≦0.05) increase the clotting time
[1]; GDL 4 mg/ml, after four days in the refrigerator (4°), control 177±17
  mean clotting time: 342 ± 32 s
[1]; GDL 4 mg/ml, day 1, n=10, control 250±16
  mean clotting time: 432 ± 16 s
[1]; Study III: 60 ng/ml histamine, 3 mg/ml GDL, n=8
  clotting time: 305 ± 30 s
[1]; Study III: 60 ng/ml histamine, 4 mg/ml GDL, n=8
  clotting time: 325 ± 53 s
[1]; Study IV: 1 μg/ml histamine added first, 1 mg/ml GDL, n=8
  clotting time: 297 ± 113 s
[1]; Study IV: 1 μg/ml histamine added first, 2 mg/ml GDL, n=8
  clotting time: 304 ± 121 s
[1]; blood containing protease 35 μg/ml plus GDL 4 mg/ml
  clotting time: 154 ± 55 s
[1]; blood exposed to tissue factor plus GDL 3 mg/ml, TF alone 101
  clotting time: 134 s
[1]; concentrations greater than 184 μg GDL per mL of blood, n=4, p<0.05
  anticoagulant effect: potent anticoagulant
[1]; trypsin-treated blood plus GDL 6 mg/ml, n=4
  clotting time: 83 ± 19 s
[2]; 11.8 mg GDL per mL CWB, n=16, control 262.63 ± 49.67
  Mean Clotting Times: 631.75 ± 74.55 s
[2]; 0.2 Unit LMWH (dalteparin sodium) plus 11.8 mg GDL per mL CWB, n=16
  Mean Clotting Times: 844.94 ± 77.99 s
[2]; 0.2 Unit UFH plus 11.8 mg GDL per mL CWB, n=16
  Mean Clotting Times: 852.00 ± 80.72 s
[3]; 0.1 mg/ml GDL, control 20±13
  ESR value: 18±14 mm/hr
[3]; 3.0 mg/ml GDL
  ESR value: 16±12 mm/hr
[3]; 6.0 mg/ml GDL
  ESR value: 15±12 mm/hr
[3]; GDL 1 mg/ml alone
  ESR: 9.6 mm
[3]; MC 0.1% plus GDL 1 mg/ml, N=8, p<0.05
  Methylcellulose (MC)-accelerated ESR: 34.6 mm
[3]; MC + GDL (MC 0.1 mg/ml, GDL 1 mg/ml)
  ESR: 30.1 mm
Citrated whole blood; GDL 3 mg/ml and 4 mg/ml, glucose 12.0 mM
  effect of GDL on clotting time in the presence of excess glucose (FIG. 2): prolonging clotting time even in the presence of excess glucose
Citrated whole blood; glucose (12.0 mM) plus GDL 3 mg/ml
  Glucose-accelerated clotting time: 243 ± 70 s
Citrated whole blood; glucose (12.0 mM) plus GDL 4 mg/ml
  Glucose-accelerated clotting time: 334 ± 107 s
plasma
  anticoagulant effect in plasma: a similar anticoagulant effect was observed
[4]
  stability at room temperature: not susceptible to degradation at room temperatures

## NCCc1c[nH]cn1 [histamine, reference compound]
[1]; Study III: 60 ng/ml histamine, 0 mg/ml GDL, n=8, control 264±38
  clotting time: 220 ± 39 s
[1]; Study IV: 1 μg/ml histamine, 0 mg/ml GDL, n=8, control 306±108
  clotting time: 253 ± 136 s
[1]; histamine 20 ng/ml, n=8, control 264±80
  clotting time: 257 ± 105 s
[1]; histamine 40 ng/ml, n=8
  clotting time: 240 ± 42 s
[1]; histamine 60 ng/ml, n=8
  clotting time: 235 ± 73 s
[1]; histamine 20 μg/ml, 10 minutes at 37°, n=9, control 300±72
  clotting time: 252 ± 61 s
[1]; histamine 40 μg/ml, 10 minutes at 37°, n=9
  clotting time: 230 ± 49 s
[1]; histamine 60 μg/ml, 10 minutes at 37°, n=9
  clotting time: 205 ± 71 s

## Protamine sulfate [PS, reference compound]
[1]; 2 μg PS per mL CWB, n=8
  Mean Clotting Times: 294.26 ± 22.92 s
[1]; 0.2 Unit LMWH (dalteparin sodium) plus 2 μg PS per mL CWB, n=8
  Mean Clotting Times: 433.96 ± 56.96 s
[1]; 0.2 Unit UFH plus 2 μg PS per mL CWB, n=8
  Mean Clotting Times: 464.71 ± 42.83 s

## trypsin [reference compound]
[1]; trypsin-treated blood, control 356±47
  clotting time: 49 ± 14 s

## unfractionated heparin sodium [UFH, reference compound]
[1]; 0.2 Unit UFH per mL CWB, n=8
  Mean Clotting Times: 648.54 ± 55.31 s
[1]; 0.3 Unit UFH per mL CWB, n=5, control 246.56 ± 36.06
  Mean Clotting Times: 507.52 ± 85.26 s
[2]; 0.2 Unit UFH per mL CWB, n=16
  Mean Clotting Times: 677.25 ± 55.33 s

B1: TF: Tissue Factor, the initiator of the extrinsic clotting cascade (protein, UniProt P13726 33-295, looked up)
Tissue factor: SGTTNTVAAYNLTWKSTNFKTILEWEPKPVNQVYTVQISTKSGDWKSKCFYTTDTECDLTDEIVKDVKQTYLARVFSYPAGNVESTGSAGEPLYENSPEFTPYLETNLGQPTIQSFEQVGTKVNVTVEDERTLVRRNNTFLSLRDVFGKDLIYTLYYWKSSSSGKKTAKTNTNEFLIDVDKGENYCFSVQAVIPSRTVNRKSTDSPVECMGQEKGEFREIFYIIGAVVFVVIILVIILAISLHKCRKAGVGQSWKENSPLNVS
[1]; 0.2% TF, n=16
  Mean Clotting Times: 100.13 ± 23.10 s
